Measured values published in PMC8040252, “1,2,4-Oxadiazole-Bearing Pyrazoles as Metabolically Stable Modulators of Store-Operated Calcium Entry” (ACS Medicinal Chemistry Letters, 2021).
Marks after values point to notes of the source that are not given here.

Key:
[1] = tested on: Store-operated calcium entry (SOCE); assay: SOCE in HEK cells, tBhQ store depletion and Ca2+ re-addition, Fura-2 calcium imaging; type: cell-based, human; conditions: Homo sapiens; for activity at 10 µM: HEK293, compound 10 μM, tBhQ 50 μM, vs control, mean ± SEM of three experiments, read-out: % SOCE residual activity (10 μM); for IC50: HEK293, mean ± SEM
Protocol: With this approach, 24 oxadiazole-bearing pyrazoles were synthesized and tested in human embryonic kidney (HEK) cells for SOCE inhibition. […] After 600 s, Ca^2+ was added and intracellular levels were measured in fluorescence microscopy with the calcium dye Fura-2. […] For these compounds, the cell viability was therefore evaluated. An MTT assay was performed and the compounds that affected cell viability by more than 25% at 10 μM were discarded (23, 31, and 33). […] According to both activity and cytotoxicity, for the selected five compounds, the representative traces are depicted in Figure 3.
Human embryonic kidney (Hek) cells were obtained from ATCC (Rockville, MD, USA) and were cultured in Dulbecco’s Modified Eagle’s Medium (DMEM; Sigma-Aldrich, Italy), supplemented with 10% heat-inactivated FBS (Gibco, Italy), L-glutamine […] (Sigma-Aldrich, Italy), 10 U/mL penicillin, and […] streptomycin (Sigma-Aldrich, Italy) at 37 °C, under a 5% CO2 humidified atmosphere. […]
(KRB, 135 mM NaCl, 5 mM KCl, 0.4 mM KH2PO4, 1 mM MgSO4, 5.5 mM glucose, 20mM HEPES, pH 7.4) containing 2 mM CaCl2 (30 min, room temperature). After which, cells were washed and incubated with KRB for other 30 min to allow de-esterification of […]. To measure SOCE, cells were depleted of calcium in the endoplasmic reticulum with 2,5-t-butylhydroquinone (tBhQ, 50 […]
For calcium imaging experiments, Hek cells were plated onto pre-treated poli-L-lysine (P4832, Sigma-Aldrich, Italy) glass coverslips of 24 mm in 6-well plates Cells were loaded with 5 µM of Fura-2 AM, 0.02% of Pluronic-127 (Life technologies, Italy) and 10 µM of sulfinpyrazone (Sigma-Aldrich, Italy) in KRB containing 2 mM CaCl2 for 30 min at RT. Cells were then washed once with KRB for 15 min for de-esterification of Fura-2 AM.
Coverslips were mounted into the acquisition chamber and placed on the stage of a Leica DMI6000 epifluorescent microscope equipped with S Fluor ×40/1.3 objective. Fura-2 AM was excited by alternate 340 and 380 nm using a Polychrome IV monochromator (Till Photonics, Germany), and the probe emission light was filtered through 520/20 bandpass filter and collected by a cooled CCD camera (Hamamatsu, Japan). The fluorescence signals were acquired and processed using MetaFluor software (Molecular Device, Sunnyvale, CA, USA). To quantify the differences in the amplitudes of Ca2+ transients, the ratio values were normalized using the formula ΔF/F0. […]
In calcium imaging experiments, data are presented as Mean +/- standard error (SEM) or Median and interquartile range (IQR). The normality of data distributions was assessed using the Shapiro−Wilk test. Nonparametric (Mann−Whitney U test and one-way) statistical analysis was used for comparisons of data. All statistical assessments were two-sided and a value of P <0.05 was considered statistically significant. Statistical analyses were performed using GraphPad Prism software (GraphPad Software, Inc., USA).

[2] = MTT cell viability assay in HEK cells; type: cell-based, human; conditions: human; for viability at 24 h, 10 µM: mean ± SEM; for cytotoxicity at 24 h, 10 µM: compounds discarded, read-out: cell viability affected by
Protocol: (§1) With this approach, 24 oxadiazole-bearing pyrazoles were synthesized and tested in human embryonic kidney (HEK) cells for SOCE inhibition. To this aim, intracellular Ca^2+ stores of HEK cells were emptied with t-butylhydroquinone (tBhQ, 50 μM) in the presence of the compounds at 10 μM concentration. After 600 s, Ca^2+ was added and intracellular levels were measured in fluorescence microscopy with the calcium dye Fura-2. […] For these compounds, the cell viability was therefore evaluated. An MTT assay was performed and the compounds that affected cell viability by more than 25% at 10 μM were discarded (23, 31, and 33). […] According to both activity and cytotoxicity, for the selected five compounds, the representative traces are depicted in Figure 3. […]
(§2) 3-(4,5-Dimethylthiazol-2-yl)-2,5-diphenyltetrazolium bromide (MTT) assay Hek cells were plated in 24-wells plate at 20.000 cells per well. After 24 h, cells were treated for other 24 h with the selected compounds. At the end of treatments, medium was removed and substituted by 300 µL of MTT reagent at the final concentration of 0.25 mg/mL for 60 min at 37 °C. Reactions were then stopped and the crystals were solubilized by adding isopropyl alcohol/HCl (1:1; vol:vol) (Sigma-Aldrich Inc., Italy), before reading the absorbance at 570 nm, using the multi-plate reader Victor 3V (PerkinElmer, Milan, Italy). […]
(§3) All statistical assessments were two-sided and a value of P <0.05 was considered statistically significant. Statistical analyses were performed using GraphPad Prism software (GraphPad Software, Inc., USA).

HEK cells = assay: MTT cell viability assay in HEK cells; type: cell-based, human; conditions: 10 μM
Protocol: as §1, §2, §3

[3] = In vitro hepatic metabolic stability in MLS9 fraction with NADPH; type: in vitro ADME, mouse; conditions: after 1 h of incubation
Protocol: The five selected inhibitors (22, 27, 29, 32, and 42) and the identified SOCE enhancer (37) were then evaluated for their in vitro hepatic metabolic stability. To this aim, the candidates were incubated in MLS9 fraction supplied with NADPH and the residual substrate was measured after 1 h. Under these conditions, the oxadiazole-bearing pyrazoles resulted overall metabolically stable, with only two compounds affording a residual substrate lower than 80% and the remaining molecules higher than 90% after incubation (Table 1 and Supporting Information). In contrast, Pyr3 and CIC-37, which suffered from hydrolysis of the ester function, provided a residual substrate of 43 and 74%, respectively (Table 1).[35] Similarly, the residual substrate of Synta66 in MLM is of 15%, due to an important hydrolysis of the amide group, absent in our class (Table 1).[39]
In vitro metabolism and purity of lead compounds
In vitro metabolism studies
Mouse liver S9 (MLS9) (pooled male mouse CD-1, protein concentration: 20 mg/mL) were purchased from Corning B.V. Life Sciences (Amsterdam, The Netherlands) and used throughout this study. The standard incubation mixture (250 μL final volume) was carried out in a 50 mM TRIS (tris[hydroxymethyl]-aminomethane) + 150 mM KCl buffer (pH 7.4) containing 3.3 mM MgCl2, 1.3 mM β-NADP-Na 2, 3.3 mM glucose 6-phosphate, 0.4 Units/mL glucose 6-phosphate dehydrogenase (NADPH regenerating system), 5 μL of acetonitrile ([…]), and the substrate compounds at a concentration of 50 µM. After pre-equilibration of the mixture, an appropriate volume of MLS9 suspension was added to give a final protein concentration of 1.5 mg/mL. The mixture was shaken for 60 min at 37 °C. Each incubation was stopped by addition of 250 μL of ice-cold acetonitrile, vortexed, and centrifuged at 13000 rpm for 10 min. Control incubations were carried out without the presence of MLS9 suspension or cofactors or in absence of the substrate.
LC-UV method for purity and metabolic stability data determination: a Shimadzu HPLC system (Shimadzu, Kyoto, Japan), consisting of two LC-10AD Vp module pumps, an SLC-10A Vp system controller, an SIL-10AD Vp autosampler, and a DGU-14-A on-line degasser were used for the analysis. The SPD-M10Avp photodiode array detector was used to detect the analytes. LC-Solution 1.24 software was used to process the chromatograms.
• Column: Phenomenex Kinetex XB C18, 150 × 4.6 mm (5 µm d.p.) protected with a SecurityGuard® (Torrance, CA, USA).
A: 0.2% formic acid in water;
B: 0.2% formic acid in acetonitrile.

IC50 [1] [µM]	Structure (SMILES)	activity at 10 µM [1] [%]	viability at 24 h, 10 µM [2] [%]	other results
	CCCCCCCCCCCC(=O)Nc1ccc(-n2ncc(-c3nc(C)no3)c2C(F)(F)F)cc1 [compound 38]	53.8 ± 4.4		
	Cc1noc(-c2cnn(-c3ccc(NC(=O)c4cccc(C(=O)O)c4)cc3)c2C(F)(F)F)n1 [compound 19]	77.2 ± 3.7		
9.5 ± 1.7	Cc1ccc(S(=O)(=O)Nc2ccc(-n3ncc(-c4nc(C)no4)c3C(F)(F)F)cc2)cc1 [compound 42]	47.6 ± 4.2	79.4 ± 4.2	cytotoxicity (HEK cells): not cytotoxic; MLS9 stability (residual substrate) [3]: 76% ^b; melting point: 149 to 150 °C
	Cc1noc(-c2cnn(-c3ccc(NC(=O)c4snnc4C)cc3)c2C(F)(F)F)n1 [compound 33]	46.5 ± 2.8	59.1 ± 6.3	cytotoxicity at 24 h, 10 µM [2]: > 25%
3.1 ± 1.4	Cc1noc(-c2cnn(-c3ccc(NC(=O)c4c(F)cccc4F)cc3)c2C(F)(F)F)n1 [compound 22]	38.6 ± 4.3	95.6 ± 8.5	cytotoxicity (HEK cells): not cytotoxic; MLS9 stability (residual substrate) [3]: >99% ^b
5.5 ± 0.8	Cc1noc(-c2cnn(-c3ccc(NC(=O)c4ccc([N+](=O)[O-])cc4)cc3)c2C(F)(F)F)n1 [compound 27]	40.8 ± 6.9	80.2 ± 7.4	cytotoxicity (HEK cells): not cytotoxic; MLS9 stability (residual substrate) [3]: >99% ^b
9.6 ± 2.5	Cc1noc(-c2cnn(-c3ccc(NC(=O)c4c(C)noc4C)cc3)c2C(F)(F)F)n1 [compound 32]	33.2 ± 1.9	77.7 ± 4.4	cytotoxicity (HEK cells): not cytotoxic; MLS9 stability (residual substrate) [3]: 99% ^b
	Cc1noc(-c2cnn(-c3ccc(NC(=O)c4c(C)cccc4F)cc3)c2C(F)(F)F)n1 [compound 21]	56.7 ± 1.3		
	Cc1noc(-c2cnn(-c3ccc(NC(=O)c4ccc5nc[nH]c5c4)cc3)c2C(F)(F)F)n1 [compound 31]	47.4 ± 1	56.5 ± 2.5	cytotoxicity at 24 h, 10 µM [2]: > 25%
	Cc1noc(-c2cnn(-c3ccc(NC(=O)c4ccc(C(F)(F)F)cc4)cc3)c2C(F)(F)F)n1 [compound 25]	110 ± 5.9		
4.4 ± 1.2	CCCC(C)OC(=O)c1cnn(-c2ccc(-n3cc(-c4cccc(C(=O)O)c4)nn3)cc2)c1C(F)(F)F (centres unmarked) [CIC-37, reference compound]	17.5 ± 1.6	93.6 ± 4.6	
	Cc1noc(-c2cnn(-c3ccc(NC(=O)C4CCS(=O)(=O)CC4)cc3)c2C(F)(F)F)n1 [compound 40]	87.5 ± 3.8		
	Cc1noc(-c2cnn(-c3ccc(NC(=O)Cc4ccc(Cl)cc4)cc3)c2C(F)(F)F)n1 [compound 24]	121 ± 2.2		
0.2 ± 0.3	COc1ccc(OC)c(-c2ccc(NC(=O)c3ccncc3F)cc2)c1 [Synta66, reference compound]	9.2 ± 1.7	75.8 ± 8	
	Cc1noc(-c2cnn(-c3ccc(NC(=O)c4cc(Br)c[nH]4)cc3)c2C(F)(F)F)n1 [compound 35]	69.8 ± 2.9		melting point: 205 to 206 °C
9.7 ± 2.3	Cc1noc(-c2cnn(-c3ccc(NC(=O)c4ccc(C#N)c(F)c4)cc3)c2C(F)(F)F)n1 [compound 29]	49.6 ± 6.5	101 ± 6.7	cytotoxicity (HEK cells): not cytotoxic; MLS9 stability (residual substrate) [3]: 73% ^b
	Cc1noc(-c2cnn(-c3ccc(NC(=O)c4ccc(Cl)cc4)cc3)c2C(F)(F)F)n1 [compound 23]	40.8 ± 3.6	72.9 ± 11.7	cytotoxicity at 24 h, 10 µM [2]: > 25%
	Cc1noc(-c2cnn(-c3ccc(NC(=O)c4ccc(C(O)(C(F)(F)F)C(F)(F)F)cc4)cc3)c2C(F)(F)F)n1 [compound 26]	109 ± 6.5		
	Cc1noc(-c2cnn(-c3ccc(NC(=O)COc4ccccc4)cc3)c2C(F)(F)F)n1 [compound 41]	63.6 ± 3.9		
0.5 ± 0.1	CCOC(=O)c1cnn(-c2ccc(NC(=O)C(Cl)=C(Cl)Cl)cc2)c1C(F)(F)F [Pyr3, reference compound]	8.9 ± 0.6	28.6 ± 0.5	
	Cc1noc(-c2cnn(-c3ccc(NC(=O)Cc4ccc([N+](=O)[O-])cc4)cc3)c2C(F)(F)F)n1 [compound 28]	108 ± 3.9		
	Cc1noc(-c2cnn(-c3ccc(NC(=O)CCN4CCOCC4)cc3)c2C(F)(F)F)n1 [compound 39]	95.9 ± 6.2		
	Cc1noc(-c2cnn(-c3ccc(NC(=O)c4ccccc4I)cc3)c2C(F)(F)F)n1 [compound 30]	53.2 ± 3.9		
	Cc1noc(-c2cnn(-c3ccc(NC(=O)c4ccncc4F)cc3)c2C(F)(F)F)n1 [compound 20]	53.6 ± 0.9		
	COc1ccccc1NS(=O)(=O)c1cc(C(=O)Nc2ccc(-n3ncc(-c4nc(C)no4)c3C(F)(F)F)cc2)ccc1C [compound 36]	59.9 ± 4.2		
